Results taken from ChEMBL document CHEMBL1158312, “Cytotoxic triterpenes from a marine sponge, Stelletta sp” (J Nat Prod, 1996).
Calls of active or inactive are those of the source. No cut-off for these calls is given here.

Legend:
[1] = biological target: T1, Retinoic acid receptor RXR-alpha (Homo sapiens) (UniProt P19793); test: Binding affinity to human RXRalpha assessed as induction of receptor conformational change at 1 uM
T1 sequence (whole entry): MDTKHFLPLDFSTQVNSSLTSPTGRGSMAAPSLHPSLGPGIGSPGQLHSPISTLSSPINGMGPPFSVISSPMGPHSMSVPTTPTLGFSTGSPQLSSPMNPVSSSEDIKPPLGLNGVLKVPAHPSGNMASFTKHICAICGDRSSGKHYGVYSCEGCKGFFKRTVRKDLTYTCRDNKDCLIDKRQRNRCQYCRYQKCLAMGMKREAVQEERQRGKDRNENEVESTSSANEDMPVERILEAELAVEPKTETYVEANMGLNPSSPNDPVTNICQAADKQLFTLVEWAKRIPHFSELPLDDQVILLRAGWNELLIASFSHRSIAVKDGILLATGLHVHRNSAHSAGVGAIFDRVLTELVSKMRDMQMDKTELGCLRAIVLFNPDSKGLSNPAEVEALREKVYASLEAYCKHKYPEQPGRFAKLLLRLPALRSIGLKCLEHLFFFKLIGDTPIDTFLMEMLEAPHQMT

[2] = biological target: T2, Retinoic acid receptor RXR-alpha (Mus musculus) (UniProt P28700); test: Binding affinity to mouse RXRalpha assessed as induction of receptor conformational change at 1 uM
T2 sequence (whole entry): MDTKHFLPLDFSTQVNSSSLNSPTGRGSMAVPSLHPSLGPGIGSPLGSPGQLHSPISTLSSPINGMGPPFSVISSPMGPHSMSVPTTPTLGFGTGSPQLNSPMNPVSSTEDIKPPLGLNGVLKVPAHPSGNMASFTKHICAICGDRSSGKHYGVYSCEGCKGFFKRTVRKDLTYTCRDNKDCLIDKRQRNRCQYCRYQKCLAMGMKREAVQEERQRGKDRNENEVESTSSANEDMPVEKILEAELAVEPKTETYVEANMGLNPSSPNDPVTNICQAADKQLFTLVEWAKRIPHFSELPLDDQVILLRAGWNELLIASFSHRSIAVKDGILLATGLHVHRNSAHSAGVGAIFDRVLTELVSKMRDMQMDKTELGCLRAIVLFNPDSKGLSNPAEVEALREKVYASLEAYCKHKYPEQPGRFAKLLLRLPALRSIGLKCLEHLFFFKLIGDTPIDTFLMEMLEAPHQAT

[3] = biological target: T2, Retinoic acid receptor RXR-alpha (Mus musculus); test: Antagonist activity at mouse RXRalpha assessed as inhibition of 9-cis-retinoic acid-induced response by differential proteolytic sensitivity assay; assay type: functional

Activity [1] | Activity [2] | Activity [3] | Compound
inactive | inactive | inactive | C/C(=C/C=C/C(C)=C/C=C/C(C)=C1\C(=O)C[C@H]2[C@@]3(C)CCC(=O)C(C)(C)[C@@H]3CC[C@]12C)C(=O)O
inactive | inactive | inactive | CC(/C=C/C=C(\C)c1ccc(C)c(=O)o1)=C1/C(=O)C[C@H]2[C@@]3(C)CCC(=O)C(C)(C)[C@@H]3CC[C@]12C
